Results taken from patent US20210038579A1, “Treatment Of Patients With Classic Fabry Disease” (Amicus Therapeutics, Inc., priority 2018, published 2021).
Positions count from the first letter of the chain named.

Experiments:
plasma lyso-Gb3 = experiment: Phase 3 study, ERT-naïve Fabry patients: plasma lyso-Gb3 by liquid chromatography-mass-spectroscopy; type: in vivo, human; details: baseline (or month 6) to month 24
Protocol: Globotriaosylceramide and Globotriaosylsphingosine. Plasma lyso-Gb3 and 24-hour urine GL-3 were analyzed by liquid chromatography-mass-spectroscopy using a novel stable isotope-labeled internal standard, 13C6-lyso-Gb3 (lower-limit-of-quantification: 0.200 ng/mL, 0.254 nmol/L).
(§1) For all outcomes except GL-3 inclusions per kidney interstitial capillary, data are pooled for patients within phenotype subgroups regardless of treatment allocation for the first six months (migalastat or placebo).

[1] = Phase 3 study, ERT-naïve Fabry patients: Gastrointestinal Symptoms Rating Scale for Diarrhea (GSRS-D); type: in vivo, human; details: for mean change in GSRS-D: total amenable patient population
Protocol: as §1, with “Patient Enrollment. […] Study Design. […] Patient-Reported Outcomes. Patient-reported outcomes were assessed using the Gastrointestinal-Symptoms-Rating-Scale (GSRS), Short Form-36v2TM and Brief-Pain-Inventory-Pain-Severity-Component. For” for “For”

[2] = biological target: T1, α-Gal A mutant form p.Asp33Gly (c.98 A > G) (Homo sapiens, UniProt P06280, D33G); experiment: HEK assay: α-Gal A activity in HEK-293 cell lysate with migalastat; type: cell-based
T1 construct: expressed in transfected cells; host or cells: HEK-293
T1 sequence (P06280 32-429 D33G): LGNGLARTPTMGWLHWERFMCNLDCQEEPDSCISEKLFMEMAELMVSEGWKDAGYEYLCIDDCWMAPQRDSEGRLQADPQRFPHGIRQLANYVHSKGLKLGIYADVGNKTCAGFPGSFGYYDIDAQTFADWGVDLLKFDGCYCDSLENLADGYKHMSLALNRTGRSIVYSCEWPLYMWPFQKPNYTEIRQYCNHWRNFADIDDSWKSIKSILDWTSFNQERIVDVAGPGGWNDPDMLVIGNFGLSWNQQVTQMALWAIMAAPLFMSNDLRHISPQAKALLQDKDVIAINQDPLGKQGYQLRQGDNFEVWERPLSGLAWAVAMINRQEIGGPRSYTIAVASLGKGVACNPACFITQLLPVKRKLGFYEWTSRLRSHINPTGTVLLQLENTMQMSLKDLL
Protocol: (§2) Such mutations are also referred to herein as “HEK assay amenable” mutations.
(§3) In this assay, cDNA constructs are created. The corresponding α-Gal A mutant forms are transiently expressed in HEK-293 cells. Cells are then incubated±migalastat (17 nM to 1 mM) for 4 to 5 days. After, α-Gal A levels are measured in cell lysates using a synthetic fluorogenic substrate (4-MU-α-Gal) or by western blot. This has been done for known disease-causing missense or small in-frame insertion/deletion mutations.

[3] = biological target: T2, α-Gal A mutant form p.Gly144Val (c.431 G > T) (Homo sapiens, UniProt P06280, G144V); experiment: as above; type: cell-based
T2 construct: expressed in transfected cells; host or cells: HEK-293
T2 sequence (P06280 32-429 G144V): T1 sequence (P06280 32-429 D33G) with G2D, G113V
Protocol: as §2, §3

[4] = biological target: T3, α-Gal A mutant form p.Asp55Val/Glu57Leu (c.164 A > T; c.170 A > T) (Homo sapiens, UniProt P06280, D55V/Q57L); experiment: as above; type: cell-based
T3 construct: expressed in transfected cells; host or cells: HEK-293
T3 sequence (P06280 32-429 D55V/Q57L): T1 sequence (P06280 32-429 D33G) with G2D, D24V, Q26L
Protocol: as §2, §3

[5] = Phase 3 study, ERT-naïve Fabry patients: renal function assessment (eGFRCKD-EPI, mGFRiohexol); type: in vivo, human
Protocol: Patient Enrollment. […] Study Design. […] Renal Function Assessment. Annualized rates of change (mL/min/1.73 m^2/year) were calculated using Chronic Kidney Disease Epidemiology Collaboration-[…]) and measured iohexol clearance-mGFRiohexol). For all outcomes except GL-3 inclusions per kidney interstitial capillary, data are pooled for patients within phenotype subgroups regardless of treatment allocation for the first six months (migalastat or placebo).

α-Gal A mutant forms = experiment: HEK assay: means over groups of GLA mutations found in enrolled patients; type: cell-based, human; details: 10 μM of migalastat
Protocol: as §2, §3

[6] = +10 μM migalastat, HEK-293 cell lysate, mean ± SEM, n = 20
[7] = HEK293, 10 μM migalastat minus baseline, read-out: Absolute increase at 10 μM (% WT)
[8] = overall amenable population, baseline to month 24
[9] = GLA mutations of enrolled patients reported as associated with the classic phenotype in the literature

OC[C@H]1NC[C@H](O)[C@@H](O)[C@H]1O [migalastat]
average (SD) change in plasma lyso-Gb3 (plasma lyso-Gb3; classic males): −36.04 (34.48) nmol/L
average (SD) change in plasma lyso-Gb3 (plasma lyso-Gb3; other patients): −16.33 (19.73) nmol/L
classic male patients with diarrhea at baseline achieving MCID reduction of 0.33 in GSRS-D ([1]; 7 of the 8 patients, by 24 months): 88%
mean (SD) change from baseline (or month 6) in diarrhea symptoms (GSRS-D) ([1]; classic male patients, by 24 months): −0.9 (1.75)
mean (SD) change in GSRS-D ([1]; other patients, month 24): −0.5 (1.01)
mean change in GSRS-D ([1]; month 6): −0.3
mean change in GSRS-D ([1]; month 24): −0.5
α-Gal A activity at 10 μM (fold over baseline) ([2]; 10 μM migalastat): 2.42 fold over baseline
+Migalastat α-Gal A activity [2, 6]: 24033 ± 865 nmol/mg/h
+Migalastat α-Gal A activity % WT [2, 6]: 70.6 ± 2.4 % WT
activation at 10 µM [2, 7]: 41.3%
α-Gal A activity at 10 μM (fold over baseline) ([3]; 10 μM migalastat): 11.58 fold over baseline
+Migalastat α-Gal A activity [3, 6]: 2924 ± 335 nmol/mg/h
+Migalastat α-Gal A activity % WT [3, 6]: 9.2 ± 1.2 % WT
activation at 10 µM [3, 7]: 8.4%
activation at 10 µM ([4]; 10 μM migalastat minus baseline, read-out: Absolute increase at 10 μM (% WT)): 8%
+Migalastat α-Gal A activity [4, 6]: 2526 ± 287 nmol/mg/h
+Migalastat α-Gal A activity % WT [4, 6]: 8.0 ± 0.5 % WT
mean (SD) annualized rate of change in eGFRCKD-EPI ([5]; classic male subgroup, baseline (or month 6 for patients randomized to placebo) to month 24, 150 mg migalastat hydrochloride every other day): −0.3 (3.76) mL/min/1.73 m^2
mean (SD) annualized rate of change in mGFRiohexol ([5]; classic males, baseline (or month 6) to month 24): −3.0 (6.04) mL/min/1.73 m^2
median change in mGFRiohexol ([5]; classic males, baseline to month 24): -1.03 mL/min/1.73 m²
reduction in mGFRiohexol in one classic patient ([5]; one classic patient, month 6 to month 24): -16 mL/min/1.73 m²
mean (SD) annualized rate of change in eGFRCKD-EPI ([5]; other patients subgroup, baseline (or month 6) to month 24): −0.3 (4.47) mL/min/1.73 m^2
mean (SD) annualized rate of change in mGFRiohexol ([5]; other patients, baseline (or month 6) to month 24): −1.0 (6.66) mL/min/1.73 m^2
median change in mGFRiohexol ([5]; other patients, baseline to month 24): -0.34 mL/min/1.73 m²
annualized change in eGFRCKD-EPI [5, 8]: −0.3 (0.66) mL/min/1.73 m^2
annualized change in mGFRiohexol [5, 8]: −1.5 (1.33) mL/min/1.73 m^2
mean absolute increase in α-Gal A activity (α-Gal A mutant forms; [9]): 24.8 % of WT
mean activity increase over baseline (α-Gal A mutant forms; [9]): 8.2 fold over baseline
mean absolute increase in α-Gal A activity (α-Gal A mutant forms; all other mutations): 24.5 % of WT
mean activity increase over baseline (α-Gal A mutant forms; all other mutations): 6.8 fold over baseline
